One compound from patent US11066481B2, “Antibodies to coagulation factor XIa and uses thereof” (THE REGENTS OF THE UNIVERSITY OF CALIFORNIA, priority 2015, dated 2021) can be followed below.

The subject of data set [1] is rabbit model of venous thromboembolism (VTE). The experiment in a line: rabbit model of venous thromboembolism (VTE). In kind it is in vivo. An excerpt: All procedures performed on these animals were in accordance with regulations and established guidelines and were reviewed and approved by an Institutional Animal Care and Use Committee or through an ethical review process. Rabbits were anesthetized according to established protocols. […] Furthermore, for the Rivaroxaban treated animals, the i.v. bolus injection was supplemented by a continuous i.v. infusion of Rivaroxaban to maintain proper dosing throughout the duration of the study due to short half-life concerns. For all treatment groups, 30 minutes after bolus injection, a sheath of the appropriate size was placed in the left femoral vein. Then a wire of approximately 14 cm with 8 strands of cotton thread attached to it (each 3 cm long) was inserted into the femoral vein. Fluoroscopy was used for guidance of the wire with the threads towards the target area in the vena cava. […] After 90 minutes the device was removed by surgical dissection, cut from the wire, and the clot-containing cotton threads were weighed after having been blotted dry. Prior to IgG dosing, and also prior to surgical removal of threads, a blood sample was drawn for preparation of serum (PK) and plasma (for PD biomarkers APTT and PT).

Data set [2] relates to rabbit cuticle bleeding. The experiment in a line: rabbit cuticle bleeding study. Format: in vivo. The note with it: 1.5 mg/kg i.v. bolus plus infusion. The method, then:
All procedures performed on these animals were in accordance with regulations and established guidelines and were reviewed and approved by an Institutional Animal Care and Use Committee or through an ethical review process. Rabbits were anesthetized according to established protocols. After anesthesia and cannulation etc., both front paws were shaved to remove fur that would otherwise contaminate saline and wick it out of the tube. Pre dosing bleeds were performed on the middle digit of the left front paw. Post dosing bleeds were performed on the same digit on the right front paw. There were four dosing groups of 10 animals each. […] Furthermore, for the Rivaroxaban treated animals, the i.v. bolus injection was supplemented by a continuous i.v. infusion of Rivaroxaban to maintain proper dosing throughout the duration of the study due to short half-life concerns. Nails were transilluminated with white light to visualize the quick and cut with a razor blade so as to transect the cuticle approximately 1 mm proximal to the apex of the quick. The nail was then immediately immersed in a saline solution in 10×75 mm 3 ml polystyrene (clear) tube. The tube with saline was stored at 37° C. before the cut. The nail was kept in the solution and time to cessation of flow was measured. […] At the end of the blood collection the tube is capped and inverted 5 times and centrifuged at 200 to 250×g for 15 min. The blood cell pellet was resuspended in 3 mL erythrocyte lysis buffer (8.3 g/L NH4Cl, 1.0 g/LKHCO3, and 0.037 g/L EDTA in water). After at least 15 min of lysis time, hemoglobin (Hb) concentration was measured at OD 575 nm using a Spectrophotometer) and expressed as arbitrary absorbance units. As indicated above, baseline cuticle bleeding times were performed prior to dosing. […] 30 minutes later a second cuticle cut was made and bleeding times recorded and blood loss measured. […]

Setting [3] is: 1.5 mg/kg i.v. bolus plus continuous infusion.

Consider `O=C(NC[C@H]1CN(c2ccc(N3CCOCC3=O)cc2)C(=O)O1)c1ccc(Cl)s1` [Rivaroxaban], for which the “any read outs measured (thrombus weight, APTT, PT)” value in data set [1] (0.045 mg/kg i.v. bolus plus continuous infusion) is reported as “No effects”. In data set [1] (setting [3]), the thrombus/clot weight entry was “decreased thrombus/clot weight”, the “time to clotting in APTT assay” value is “prolonged time to clotting” and the “time to clotting in PT assay” value is on record as “prolonged time to clotting”. Besides, in data set [2], the “time to clotting in APTT coagulation assay” value is “significant prolongation in time to clotting”, the “time to clotting in PT coagulation assay” value was “significant prolongation in time to clotting” and the “total blood loss following cuticle cutting” value is on record as “significantly increased total blood loss”.
